# How the values were obtained:
# AVN conduction = assay: AV block duration after ACH bolus, direct AVN injection vs. intravenous, anesthetized canines; type: in vivo
# Excerpt: (§1) This study evaluated the effect of locally administered acetylcholine (ACH) on AVN conduction and refractoriness properties during sinus rhythm and AF. Canines (n=7) were anesthetized, and instrumented to assess atrial and ventricular electrophysiology as well as arterial blood pressure. A custom drug delivery catheter was fixed into the AVN region using a combination of standard electrophysiological mapping techniques and image guided therapy via a cardiac navigation system.
# [1] = tested on: AVN conduction and refractoriness; assay: Incremental ACH infusion into the AVN: ventricular rate during electrically induced AF, AVN refractoriness, intervals, blood pressure; type: in vivo, Canines; settings: for Ventricular rate during electrically induced AF: infusion into AVN, decreased from 182±32
# Excerpt: as §1
# Subsequently, incremental doses of ACH starting at 10 ug/min were infused into the AVN until complete atrioventricular heart block (AVB) was observed.
# [2] = Intravenous Bolus (n = 5), identical dose
smiles,measurement,setting,value
"CC(=O)OCC[N+](C)(C)C [ACH, acetylcholine]",AV Block III duration,AVN conduction; Direct AVN Bolus (n = 6),12.30 ± 4.72 min
same,"Overall AV Block duration (AV block I, II and III)",AVN conduction; Direct AVN Bolus (n = 6),41.19 ± 27.14 min
same,AV Block III duration,AVN conduction; [2],0.00 ± 0.00 min
same,"Overall AV Block duration (AV block I, II and III)",AVN conduction; [2],0.31 ± 0.43 min
same,"PP intervals, HV intervals and blood pressure",[1]; ACH dose producing first AVB,remained unchanged
same,Time to full reversal of observed effects after stopping ACH infusion,[1]; after stopping infusion into AVN,≤ 20 min
same,Ventricular rate during electrically induced AF,"[1]; dosage inducing first degree AVB, p<0.05",77±28 bpm
same,Ventricular rate during electrically induced AF,"[1]; dosage inducing third degree AVB, p<0.05",28±8 bpm
same,AVN effective refractory period (ERP),"[1]; first degree AVB dose, pacing cycle length 400 msec, increased from 186±37, p=0.06",282 ± 33 ms
same,Wenckebach cycle length,"[1]; first degree AVB dose, increased from 271±29, p<0.05",378 ± 58 ms

# Source: patent publication US8892197B2, “Method and apparatus to control conduction through the heart to treat cardiac conditions” (Medtronic, Inc., priority 2005, dated 2014)
